No end group written: not given here.
Columns and labels:
Crhr2 [1] = test: Pressure overload-induced cardiac dysfunction (TAC) in mice, continuous infusion initiated 1 wk after TAC; type: in vivo, mouse
Description: (§1) 8-10-week-old male mice were anesthetized with 50 mg/kg sodium pentobarbital, and osmotic minipumps (Alzet) containing Ucn2 (25, 50, 100 ng/g/day; Peptide Institute) or antisauvagine-30 (100 ng/g/day; Medical & Biological Laboratories) were implanted subcutaneously in the back for 4 wk.
TAC was performed under anesthesia and intubation. The chest was opened to visualize the aortic arch. The transverse aorta was then ligated between the right innominate and left common carotid arteries against a blunted 24-G needle with a 7-0 suture. The sham procedure was identical except that the aorta was not ligated.
(§2) Transthoracic echocardiography was performed on mice anesthetized with 50 mg/kg sodium pentobarbital. The left ventricular (LV) end-systolic diameter and the LV end-diastolic diameters were measured to calculate the % LV fractional shortening (% FS) in M-mode using an Acuson Sequoia C-512 (Siemens) with a 15-MHz probe. Systolic blood pressure (SBP) was measured by tail cuff method with an automatic sphygmomanometer (BP98A; Saffron) while the mice were restrained.
(§3) Mouse plasma Ucn2 and BNP were quantified by a mouse Ucn2 ELISA kit (Yanaihara), and by a BNP Enzyme Immunoassay kit (RayBiotech Inc.), respectively, according to the manufacturer's instructions.
Tissue samples were embedded in OCT compound (Sakura Finetek) and snap-frozen in liquid nitrogen. Left ventricular myocardium sections (6 μm slices) were stained with Picro-Sirius red with standard protocols and viewed with a BX51 microscope (Olympus). Cardiac fibrosis in 20 random images was quantified in ImageJ software.
We next investigated whether treatment with the Crhr2 antagonist, antisauvagine-30 (Rühmann et al., 1998, Proc. Natl. Acad. Sci. USA. 95:15264-15269), would attenuate the progression of established cardiac hypertrophy in mice. For this, continuous antisauvagine-30 infusion was initiated 1 wk after TAC surgery (FIG. 19).

Crhr2 [2] = test: Continuous Ucn2 infusion through subcutaneous osmotic pump in mice for 4 wk; type: in vivo, mouse
Description: as §1, §2, §3
To examine the effect of long-term Ucn2 up-regulation in vivo, we implanted mice with osmotic pumps that release Ucn2.

Crhr2 [3] = test: Continuous Ucn2 infusion in cardiomyocyte-specific Crhr2 knockout mice and control mice; type: in vivo, mouse
From the text: Crhr2^tm1a(KOMP)Wtsi mice on a C57BL/6 background were generated by the Knock Out Mice Program (KOMP) at the University of California Davis (Davis, Calif.) and Children's Hospital Oakland Research Institute (Oakland, Calif.). Crhr2^tm1a(KOMP)Wtsi mice were bred with mice expressing Flp recombinase to obtain Crhr2 conditional KO mice (Crhr2^flox/flox mice). Crhr2^flox/flox mice were backcrossed at least 10 times to wild-type C57BL/6 genetic background mice. Tamoxifen-inducible, cardiomyocyte-specific Crhr2 knockout mice (cmc-Crhr2-KOs) were generated by intercrossing the αMHC-CreERT2 line to Crhr2^flox/flox mice (Takefuji et al., 2012, Circulation. 126:1972-1982). Cre-mediated recombination of floxed alleles was induced with an intraperitoneal injection of 1 mg tamoxifen dissolved in 100 μl Miglyol for 5 consecutive days. Vehicle-treated mice received Miglyol only, and αMHC-CreERT2+/−-Crhr2^wt/wt mice were used as controls. Experiments were performed 2 wk after the end of induction.
as §1, §2
To examine the functional significance of Crhr2 in cardiomyocytes in vivo, we generated mice with tamoxifen-inducible cardiomyocyte-specific Crhr2 deficiency (cmc-Crhr2-KO) by mating αMHC-CreERT2 mice with Crhr2^flox/flox mice.

[4] = acute intravenous injection; cited from earlier work

| Substance | plasma BNP (Crhr2 [1]; TAC mice, 100 ng/g/day infusion from 1 wk after TAC, day 35, FIG. 22) | cardiac hypertrophy (left ventricular weight/tibia length ratio) (Crhr2 [1]; TAC mice, 100 ng/g/day infusion from 1 wk after TAC, day 35, FIG. 23) | cardiac fibrosis (fibrosis area) (Crhr2 [1]; TAC mice, 100 ng/g/day infusion from 1 wk after TAC, day 35, FIG. 24) | systolic blood pressure (Crhr2 [1]; TAC mice, 100 ng/g/day infusion from 1 wk after TAC, FIG. 20) | cardiac output (left ventricular fractional shortening) (Crhr2 [1]; TAC mice, 100 ng/g/day infusion from 1 wk after TAC, FIG. 21) | left ventricular fractional shortening (Crhr2 [2]; 4 wk Ucn2 infusion 100 ng/g/day, FIG. 8) | systolic blood pressure (Crhr2 [2]; 4 wk Ucn2 infusion 100 ng/g/day, FIG. 9) | blood levels of brain natriuretic peptide (BNP) (Crhr2 [2]; 4 wk Ucn2 infusion 100 ng/g/day, FIG. 10) | cardiac hypertrophy, left ventricular weight to tibia length ratio (Crhr2 [2]; 4 wk Ucn2 infusion 25, 50 or 100 ng/g/day, FIGS. 6 and 7) | circulating Ucn2 levels (Crhr2 [2]; after 4 wk of sustained Ucn2 infusion (25, 50 or 100 ng/g/day), osmotic pump, blood, FIG. 5) | fractional shortening decrease (Crhr2 [3]; cmc-Crhr2-KO mice, 4 wk of continuous Ucn2 infusion 100 ng/g/day, FIG. 13) | Ucn2-induced hypertrophic response (left ventricular weight/tibia length ratio) (Crhr2 [3]; cmc-Crhr2 KO mice, 4 wk Ucn2 100 ng/g/day, FIG. 12) | fractional shortening (Crhr2 [3]; control mice, 4 wk of continuous Ucn2 infusion 100 ng/g/day, FIG. 13) | TAC-induced cardiac dysfunction (Crhr2 [1]; 4 wk of sustained Ucn2 infusion initiating 1 wk after TAC surgery) | cardiac contraction [4] |
| --- | --- | --- | --- | --- | --- | --- | --- | --- | --- | --- | --- | --- | --- | --- | --- |
| antisauvagine-30 | strong reduction | strong reduction | strong reduction | without significantly affecting systolic blood pressure | protected mice from further deterioration of cardiac output | – | – | – | – | – | – | – | – | – | – |
| urocortin 2 (VILSLDVPIGLLRILLEQARYKAARNQAATNAQILAHV; ends and bridges not checked; UniProt Q99ML8 73-110, looked up) [Ucn2, Ligand/agonist of Crhr2, obtained from Peptide Institute] | – | – | – | – | – | decrease in left ventricular fractional shortening | without significantly affecting systolic blood pressure | significantly increased | increased left ventricular weight to tibia length ratio in a dose-dependent manner | elevated similar to those observed after TAC | significantly attenuated | failed to show a Ucn2-induced hypertrophic response | decreased fractional shortening | accelerated TAC-induced cardiac dysfunction | accelerate cardiac contraction |

From patent US20210379158A1, “METHOD FOR PREVENTING OR TREATING HEART FAILURE BY ADMINISTERING A MEDICAMENT CONTAINING AN ANTAGONIST OF CORTICOTROPIN RELEASING HORMONE RECEPTOR 2 (CRHR2)” (RaQualia Pharma Inc., priority 2017, published 2021)
